{"source": "the NIST ThermoML archive (doi:10.1016/j.jct.2015.08.014)", "key": {"[1]": {"settings": "101.33 kPa, Liquid; for viscosity: Capillary tube (Ostwald / Ubbelohde) method; for mass density: Vibrating tube method"}, "[2]": {"experiment": "xn = mol fraction of the nth substance listed", "settings": "100 kPa, Liquid, x2 = 0; for viscosity: Capillary tube (Ostwald / Ubbelohde) method; for mass density: Vibrating tube method"}}, "note": "± gives the expanded uncertainty stated by the source."}
{"compound": "O=C1CCCO1", "note": "[γ-butyrolactone]", "values": [{"measurement": "viscosity", "setting": "[1]; 273.15 K", "result": "2.69 ± 0.06", "unit": "mPa·s"}, {"measurement": "mass density", "setting": "[1]; 273.15 K", "result": "1149.15 ± 9.2", "unit": "kg/m3"}, {"measurement": "viscosity", "setting": "[1]; 278.15 K", "result": "2.43 ± 0.05", "unit": "mPa·s"}, {"measurement": "mass density", "setting": "[1]; 278.15 K", "result": "1144.23 ± 9.2", "unit": "kg/m3"}, {"measurement": "viscosity", "setting": "[1]; 283.15 K", "result": "2.21 ± 0.05", "unit": "mPa·s"}, {"measurement": "mass density", "setting": "[1]; 283.15 K", "result": "1139.31 ± 9.1", "unit": "kg/m3"}, {"measurement": "viscosity", "setting": "[1]; 288.15 K", "result": "2.02 ± 0.04", "unit": "mPa·s"}, {"measurement": "mass density", "setting": "[1]; 288.15 K", "result": "1134.4 ± 9.1", "unit": "kg/m3"}, {"measurement": "viscosity", "setting": "[1]; 293.15 K", "result": "1.86 ± 0.04", "unit": "mPa·s"}, {"measurement": "mass density", "setting": "[1]; 293.15 K", "result": "1129.49 ± 9", "unit": "kg/m3"}, {"measurement": "viscosity", "setting": "[1]; 298.15 K", "result": "1.71 ± 0.04", "unit": "mPa·s"}, {"measurement": "mass density", "setting": "[1]; 298.15 K", "result": "1124.59 ± 9", "unit": "kg/m3"}, {"measurement": "viscosity", "setting": "[1]; 303.15 K", "result": "1.58 ± 0.03", "unit": "mPa·s"}, {"measurement": "mass density", "setting": "[1]; 303.15 K", "result": "1119.68 ± 9", "unit": "kg/m3"}, {"measurement": "viscosity", "setting": "[1]; 308.15 K", "result": "1.47 ± 0.03", "unit": "mPa·s"}, {"measurement": "mass density", "setting": "[1]; 308.15 K", "result": "1114.78 ± 8.9", "unit": "kg/m3"}, {"measurement": "viscosity", "setting": "[1]; 313.15 K", "result": "1.37 ± 0.03", "unit": "mPa·s"}, {"measurement": "mass density", "setting": "[1]; 313.15 K", "result": "1109.87 ± 8.9", "unit": "kg/m3"}, {"measurement": "viscosity", "setting": "[1]; 318.15 K", "result": "1.28 ± 0.03", "unit": "mPa·s"}, {"measurement": "mass density", "setting": "[1]; 318.15 K", "result": "1104.96 ± 8.8", "unit": "kg/m3"}, {"measurement": "viscosity", "setting": "[1]; 323.15 K", "result": "1.2 ± 0.03", "unit": "mPa·s"}, {"measurement": "mass density", "setting": "[1]; 323.15 K", "result": "1100.05 ± 8.8", "unit": "kg/m3"}, {"measurement": "mass density", "setting": "[1]; 328.15 K", "result": "1095.14 ± 8.8", "unit": "kg/m3"}, {"measurement": "mass density", "setting": "[1]; 333.15 K", "result": "1090.22 ± 8.7", "unit": "kg/m3"}]}
{"compound": "O=C1CCCO1", "note": "[γ-butyrolactone] + CCCC[N+]1(C)CCCC1.N#CN=C=[N-]", "values": [{"measurement": "viscosity", "setting": "[2]; 273.15 K", "result": "2.69 ± 0.06", "unit": "mPa·s"}, {"measurement": "mass density", "setting": "[2]; 273.15 K", "result": "1149.15 ± 9.2", "unit": "kg/m3"}, {"measurement": "viscosity", "setting": "[2]; 283.15 K", "result": "2.21 ± 0.05", "unit": "mPa·s"}, {"measurement": "mass density", "setting": "[2]; 283.15 K", "result": "1139.31 ± 9.1", "unit": "kg/m3"}, {"measurement": "viscosity", "setting": "[2]; 293.15 K", "result": "1.86 ± 0.04", "unit": "mPa·s"}, {"measurement": "mass density", "setting": "[2]; 293.15 K", "result": "1129.49 ± 9", "unit": "kg/m3"}, {"measurement": "viscosity", "setting": "[2]; 298.15 K", "result": "1.71 ± 0.04", "unit": "mPa·s"}, {"measurement": "mass density", "setting": "[2]; 298.15 K", "result": "1124.59 ± 9", "unit": "kg/m3"}, {"measurement": "viscosity", "setting": "[2]; 303.15 K", "result": "1.58 ± 0.03", "unit": "mPa·s"}, {"measurement": "mass density", "setting": "[2]; 303.15 K", "result": "1119.68 ± 9", "unit": "kg/m3"}, {"measurement": "viscosity", "setting": "[2]; 313.15 K", "result": "1.37 ± 0.03", "unit": "mPa·s"}, {"measurement": "mass density", "setting": "[2]; 313.15 K", "result": "1109.87 ± 8.9", "unit": "kg/m3"}, {"measurement": "viscosity", "setting": "[2]; 323.15 K", "result": "1.2 ± 0.03", "unit": "mPa·s"}, {"measurement": "mass density", "setting": "[2]; 323.15 K", "result": "1100.05 ± 8.8", "unit": "kg/m3"}]}
